Ki data for 25 compounds are collected here from US20030162777A1, “Novel N-acylated heterocycles” (Recordati S.A., priority 2001, published 2003).

One may read the Ki as the dissociation constant of the complex between target and ligand, obtained from inhibition or displacement.

The test concerns the target T1, human 5HT1A-serotonergic receptor (Homo sapiens, UniProt P08908).
T1 construct: expressed in transfected cells; host or cells: HeLa (human cell line), stably transfected; cell membranes used
T1 sequence (P08908 1-422): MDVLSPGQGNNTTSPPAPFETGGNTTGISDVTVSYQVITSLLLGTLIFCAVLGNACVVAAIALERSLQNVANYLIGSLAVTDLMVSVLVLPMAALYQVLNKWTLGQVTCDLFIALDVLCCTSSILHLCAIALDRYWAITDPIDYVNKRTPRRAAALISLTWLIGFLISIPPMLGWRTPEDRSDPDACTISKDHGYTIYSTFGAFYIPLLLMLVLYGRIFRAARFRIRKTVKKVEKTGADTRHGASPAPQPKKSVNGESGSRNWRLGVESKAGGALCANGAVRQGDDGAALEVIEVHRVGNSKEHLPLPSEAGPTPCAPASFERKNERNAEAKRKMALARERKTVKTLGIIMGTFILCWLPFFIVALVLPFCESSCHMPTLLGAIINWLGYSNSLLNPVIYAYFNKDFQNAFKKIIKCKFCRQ
In words: Radioligand binding to recombinant 5-HT1A receptors. The note with it: [3H]8-OH-DPAT 1 nM, membranes of HeLa cells with human 5-HT1A receptor; Ki from IC50 by Cheng & Prusoff; read-out: Binding affinity for 5HT1A receptors, Ki. The gist of the method:
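Membranes from HeLa cells stably expressing human 5-HT1A incubated 30 min at 30 °C with 1 nM [3H]8-OH-DPAT and compound in 50 mM Tris-HCl pH 7.4, 2.5 mM MgCl2, […] pargyline. Nonspecific binding defined with 10 μM 5-HT; filtration readout, IC50 converted to Ki via Cheng–Prusoff.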
Turning to “1-(2-Furoyl-1,2,3,4-tetrahydroquinoline-2-ylmethyl)-4-(4-indolyl)piperazine [Example 68A13]”, the inhibition constant (Ki) turned out to be 5.3 nM.
Then `O=S(=O)(c1ccc(F)cc1)N1c2ccccc2CCC1CN1CCN(c2cccc3[nH]ccc23)CC1` (stereo not shown) [Example 70A4, 1-[1-(4-Fluorophenylsulphonyl)-1,2,3,4-tetrahydroquinoline-2-ylmethyl]-4-(4-indolyl)piperazine], with 20.9 nM.
As to `O=C(C1CCCCC1)N1c2ccccc2CCC1CN1CCN(c2cc(C(F)(F)F)nc3ccccc23)CC1` (stereo not shown) [Example 72A89, 1-(1-Cyclohexanecarbonyl-1,2,3,4-tetrahydroquinolin-2-ylmethyl)-4-(2-trifluoromethylquinolin-4-yl)piperazine], the Ki came out at 34.7 nM.
The value for `O=C(C1CCCCC1)N1c2ccccc2CCC1CN1CCN(c2ccc(Br)c3[nH]ccc23)CC1` (stereo not shown) [Example 35A32, 1-(7-Bromo-4-indolyl)-4-(1-cyclohexanecarbonyl-1,2,3,4-tetrahydroquinoline-2-ylmethyl)piperazine] was 20 nM; that for `CC(C)(C)OC(=O)N1CCC(C(=O)N2c3ccccc3CCC2CN2CCN(c3cccc4[nH]ccc34)CC2)CC1` (stereo not shown) [Example 71A3, 1-[1-[4-(1-tert-Butoxycarbonylpiperidino)carbonyl]-1,2,3,4-tetrahydroquinoline-2-ylmethyl]-4-(4-indolyl)piperazine] was 40.6 nM.
Then `O=C(C1CCCCC1)N1c2ccc(Br)cc2CCC1CN1CCN(c2cccc3[nH]ccc23)CC1` (stereo not shown) [Example 34, 1-(6-Bromo-1-cyclohexanecarbonyl-1,2,3,4-tetrahydroquinoline-2-ylmethyl)-4-(4-indolyl)piperazine], with 18.9 nM; and `O=C(c1ccc(C(F)(F)F)cc1)N1c2ccccc2CCC1CN1CCN(c2cccc3[nH]ccc23)CC1` (stereo not shown) [Example 68A23, 1-(4-Indolyl)-4-[1-(4-trifluoromethylbenzoyl)-1,2,3,4-tetrahydroquinoline-2-ylmethyl]piperazine], with 42.8 nM.
The value for `Cc1oc(S(=O)(=O)N2CCOCC2)cc1C(=O)N1c2ccccc2CCC1CN1CCN(c2cccc3[nH]ccc23)CC1` (stereo not shown) [Example 68A56, 1-(4-Indolyl)-4-[1-(2-methyl-5-morpholin-4-ylsulfonylfuran-3-carbonyl)-1,2,3,4-tetrahydroquinoline-2-ylmethyl]piperazine] was 26.8 nM.
`COc1ccc(NC(=O)N2c3ccccc3CCC2CN2CCN(c3cccc4[nH]ccc34)CC2)cc1` (stereo not shown) [Example 69A13, 1(4-Indolyl)-4-[1-(4-methoxyphenylaminocarbonyl)-1,2,3,4-tetrahydroquinoline-2-ylmethyl]piperazine]: the Ki was found to be 21.3 nM.
In the case of `COc1cc(F)ccc1N1CCN(CC2CCc3cccc(C)c3N2C(=O)C2CCCCC2)CC1` (stereo not shown) [Example 67, 1-(1-Cyclohexanecarbonyl-8-methyl-1,2,3,4-tetrahydroquinoline-2-ylmethyl)-4-(4-fluoro-2-methoxyphenyl)piperazine], the Ki was 29.4 nM.
For the compound `O=C(C1CCCCC1)N1c2ccccc2CCC1CN1CCN(c2ccc(F)cc2)CC1` (stereo not shown) [Example 72A26, 1-(1-Cyclohexanecarbonyl-1,2,3,4-tetrahydroquinolin-2-ylmethyl)-4-(4-fluorophenyl)piperazine], the Ki worked out at 19.6 nM.
Then `O=C(C1CCCCC1)N1c2ccccc2CCC1CN1CCN(c2cccc(Cl)n2)CC1` (stereo not shown) [Example 72A65, 1-(1-Cyclohexanecarbonyl-1,2,3,4-tetrahydroquinolin-2-ylmethyl)-4-(6-chloropyridin-2-yl)piperazine], with 15.5 nM; and `O=C(C1CCC1)N1c2ccccc2CCC1CN1CCN(c2nccc3ccccc23)CC1` (stereo not shown) [Example 75A10, 1-(1-Cyclobutanecarbonyl-1,2,3,4-tetrahydroquinolin-2-ylmethyl)-4-(1-isoquinolinyl)piperazine], with 26.4 nM; and `O=S(=O)(Cc1ccccc1)N1c2ccccc2CCC1CN1CCN(c2cccc3c2OCCO3)CC1` (stereo not shown) [Example 76A11, 1-(2,3-Dihydrobenzo[1,4]dioxin-5-yl)-4-(1-phenylmethanesulphonyl-1,2,3,4-tetrahydroquinolin-2-ylmethyl)piperazine], with 4.5 nM.
Then `O=S(=O)(c1cccs1)N1c2ccccc2CCC1CN1CCN(c2cccc3[nH]ccc23)CC1` (stereo not shown) [Example 70A1, 1-(4-Indolyl)-4-[1-(2-thienylsulphonyl)-1,2,3,4-tetrahydroquinoline-2-ylmethyl]piperazine], with 18.8 nM.
The value for `CC(C)(C)OC(=O)NCC(=O)N1c2ccccc2CCC1CN1CCN(c2cccc3[nH]ccc23)CC1` (stereo not shown) [Example 71A, 1-[1-(2-tert-Butoxycarbonylamino)acetyl-1,2,3,4-tetrahydroquinoline-2-ylmethyl]-4-(4-indolyl)piperazine] was 35.7 nM; that for `COCCC(=O)N1c2ccccc2CCC1CN1CCN(c2ccccc2OCC(F)(F)F)CC1` (stereo not shown) [Example 7, 1-[1-(3-Methoxypropionyl)-1,2,3,4-tetrahydroquinoline-2-ylmethyl]-4-[2-(2,2,2-trifluoroethoxy)phenyl]piperazine] was 31.2 nM; that for `O=C(C1CCCCC1)N1c2ccccc2CCC1CN1CCN(c2cccc3cc[nH]c23)CC1` (stereo not shown) [Example 35A26, 1-(1-Cyclohexanecarbonyl-1,2,3,4-tetrahydroquinoline-2-ylmethyl)-4-(7-indolyl)piperazine] was 3.1 nM.
For `CC(C)(C)OC(=O)NCCC(=O)N1c2ccccc2CCC1CN1CCN(c2cccc3[nH]ccc23)CC1` (stereo not shown) [Example 71A1, 1-[1-(3-tert-Butoxycarbonylamino)propionyl-1,2,3,4-tetrahydroquinoline-2-ylmethyl]-4-(4-indolyl)piperazine], the Ki came out at 15.2 nM.
`O=C(C1CCCCC1)N1c2ccccc2CCC1CN1CCN(Cc2ccccc2Cl)CC1` (stereo not shown) [Example 35A34, 1-(2-Chlorobenzyl)-4-(1-cyclohexanecarbonyl-1,2,3,4-tetrahydroquinoline-2-ylmethyl)piperazine]: the Ki was found to be 12.3 nM.
Then `CC(=O)n1ccc2c(N3CCN(CC4CCc5ccccc5N4C(=O)C4CCCCC4)CC3)cccc21` (stereo not shown) [Example 35A25, 1-(1-Acetyl-4-indolyl)-4-(1-cyclohexanecarbonyl-1,2,3,4-tetrahydroquinoline-2-ylmethyl)piperazine], with 10.1 nM; and `O=C(C1CCCCC1)N1c2ccccc2CCC1CN1CCN(C2CCCc3ccccc32)CC1` (stereo not shown) [Example 60A10, 1-(1-Cyclohexanecarbonyl-1,2,3,4-tetrahydroquinoline-2-ylmethyl)-4-[1-(1,2,3,4-tetrahydronaphthyl)]piperazine], with 31.6 nM; and “1-(2-Cyclopropylacetyl-1,2,3,4-tetrahydroquinoline-2-ylmethyl)-4-(4-indolyl)piperazine [Example 68A11]”, with 6.8 nM.
For the compound `O=C(C1CCCCC1)N1c2ccccc2CCC1CN1CCCC(Cc2ccccc2)C1` (single isomer, unassigned) [Example 59, 3-Benzyl-1-(1-cyclohexanecarbonyl-1,2,3,4-tetrahydroquinoline-2-ylmethyl)piperidine], the inhibition constant (Ki) was 45.7 nM.
As for `O=C(c1ccc(Cl)cc1)N1c2ccccc2CCC1CN1CCN(c2cccc3[nH]ccc23)CC1` (stereo not shown) [Example 68A5, 1-[1-(4-Chlorobenzoyl)-1,2,3,4-tetrahydroquinoline-2-ylmethyl]-4-(4-indolyl)piperazine], the Ki is 4 nM.
